Like-named read-outs stand apart in the source and are kept apart here. No end group written: not given here.
How the values were obtained:
[1] = tested on: polymorphonuclear leukocyte migration; assay: Chemotaxis of polymorphonuclear leukocytes (trans-well, zymosan-activated human serum); type: cell-based
Procedure: The materials and methods for ascertaining the chemotactic inhibitory properties of peptides are generally known in the art, and the preferred procedure is described by Capsoni, et al., 1989, J. of Immunol. Meth., 120:125. Generally, chemotaxis is determined by positioning the leukocytes and a chemotactic substance on opposite sides of a membrane in appropriate culture media. The preferred apparatus for doing a chemotaxis assay is produced by Costar Corporation, Cambridge, Mass., and is termed the trans-well cell culture apparatus. […] If a substance is being tested for inhibitory activity this can be achieved by combining it with the leukocytes or the chemotactic substance.
The procedure of Capsoni, et al., above, was followed with the following modifications. Leukocytes may be isolated and labelled with ^111 Indium as described for the adhesion assay, above. The cells are resuspended after labelling in an appropriate cell culture medium at about 5×10^6 cells/ml. Next, a desired amount of the cell suspension is mixed with a predetermined amount of the peptide(s) to be tested for inhibitory activity, and the mixture added to an appropriate filter device. Three μm-pore membranes are situated in the wells of a 24 trans-well tissue culture plate. The cell/inhibitory peptide mixture is incubated for a short time at 37° C. to acclimate the cells to the membrane surface, and to provide sufficient time for them to settle onto the membrane surface. Next, inserts are set in wells containing cell culture media. The media contains zymosan-activated human serum at about 0.5%. Zymosan activation generates complement-derived chemotactic factors which attract the leukocytes through the pores of the membrane. This media was also prewarmed for an appropriate time prior to addition to the cell culture wells. After a 30 minute incubation period at 37° C., the number of leukocytes that have migrated through the membrane filter, in the presence or absence of CD18 peptides, is readily determined by counting the amount of ^111 Indium present in the media. This may be facilitated by adding an appropriate detergent at an appropriate concentration to the media in the wells prior to removing an aliquot for counting. In this way, the inhibitory activities of the peptide being tested could be determined.
Many of the materials and methods used to test the inhibitory activity of the CD18 peptides on the chemotactic response of the polymorphonuclear leukocytes are similar or identical to those used to perform the adhesion assays described in Example 1. Polymorphonuclear leukocytes were isolated and labelled with ^111 Indium as described before, and the cells were suspended in RPMI 1640 culture medium at a concentration of 5×10^6 /ml. Next, 75 μl of the cell suspension and 25 μl of media containing a desired concentration of a CD18 peptide were added to trans-well inserts, and the mixture was incubated at 37° C. for 10 minutes.
To the bottom wells of the 24-well plate 0.6 ml of media containing 0.5% zymosan-activated human serum was added. This solution was also warmed to 37° C. for 10 minutes prior to use.
Next, the assay was conducted by incubating the trans-well inserts containing the cell suspension with the desired CD18 peptide in the 24-well plates at 37° C. for 30 minutes. Subsequently, the inserts were removed, and 60 μl of a 10% sodium dodecyl sulphate solution was added to the wells of the 24-well plate. The plates were incubated with gentle shaking at room temperature for 15 minutes, and 110 μl aliquots were removed and the amount of ^111 Indium determined using a gamma-counter.

[2] = tested on: polymorphonuclear leukocyte adhesion to TNF activated endothelial cells; type: cell-based, human; conditions: average over PMN donors (# donors in parentheses)
Procedure: Leukocyte adherence can be measured using several assays known in the art, and the preferred assay is described by Charo, et al., 1985, Blood, 65:473. Briefly, the assay consists of labelling leukocytes with an appropriate label, incubating them with endothelial cells and determining the number of leukocytes that adhere. Preferably the cells are labelled with a gamma ray emitting isotope and the preferred labels are ^111 Indium-oxide or ^51 chromium.
Leukocytes may be isolated from human donors using standard techniques. This generally consists of isolating blood in a physiologically balanced salt solution containing an appropriate anticoagulant, and separating the leukocytes by an appropriate separation step, preferably on Ficoll-Hypaquegradients. Contaminating erythrocytes can be removed by hypotonic lysis. The resulting leukocytes are suspended in a physiologically buffered solution, pH 7.4. The preferred physiological buffered solution is Hank's balanced salt solution that is calcium and magnesium free.
The isolated leukocytes can then be labelled by incubating them for an appropriate time, generally 15 minutes, with the desired radioisotope at a predetermined concentration. The radiolabelled cells are washed to remove unincorporated label, and then suspended in an appropriate solution to perform the adhesion assay described below.
Endothelial cells can be prepared from a number of sources and by several techniques known in the art. Preferably they are obtained from human umbilical veins using the procedure of Charo et al., above. Generally, endothelial cells are isolated by enzymatic digestion of the umbilical veins using, preferably, collagenase as described by Jaffe, E. A., et al., 1973, J. of Clin. Invest, 52:2745. The cells are grown on an appropriate tissue culture substratum, preferably gelatine-coated surfaces.
The endothelial cells may be grown in a variety of tissue culture media containing appropriate supplements such as an appropriate concentration of fetal calf serum, and other supplements/additives routinely utilized by those skilled in this art that are recognized as being favorable for endothelial cells. The endothelial cells may be passaged with a dilute solution of an appropriate protease, and if desired a metal ion chelator. Preferably a solution consisting of 0.05 to 0.25% trypsin and 0.02% EDTA is used. To ensure that the cells are indeed endothelial cells, they are tested by immunofluorescence for Factor VIII antigen, a known endothelial cell marker.
Leukocyte adherence to endothelial cell monolayers may be determined as follows. Early passage endothelial cells, generally not beyond the fifth passage, are cultured on an appropriate substratum and in a suitable cell culture medium. The culture substratum is preferably pre-coated with an appropriate substance that enhances the adherence of the endothelial cells. Several such substances are known including fibronectin, poly-L-lysine, gelatin and laminin. Fibronectin is preferred. An appropriate culture substratum is a 96 well micro titer plate, and a suitable medium is Medium 199 containing fetal calf serum and other supplements known to be beneficial for the growth and maintenance of endothelial cells that are well known to those skilled in the art. Prior to adding a predetermined number of labelled leukocytes, the endothelial cell monolayer is washed with a physiologically balanced salt solution containing a reduced amount of fetal calf serum, preferably 1%. The preferred solution is RPMI supplemented with 1% fetal calf serum.
The endothelial cell monolayer containing added leukocytes is incubated for a time sufficient to permit maximum adherence of the leukocytes, and preferably this is conducted at 37° C. for 30 minutes in an appropriate cell culture atmosphere. Generally this would consist of growing and incubating the cells for the assay period in 5% CO2, 95% air, and 95% humidity. […]

RIGFGSFVDKTVLPFVNTHPDKLRN [Peptide 6-25, NH2 --Arg--Ile--Gly--Phe--Gly--Ser--Phe--Val--Asp--Lys--Thr--Val--Leu--Pro--Phe--Val--Asn--Thr--His--Pro--Asp--Lys--Leu--Arg--Asn--COOH]
percent inhibition (-) or enhancement of polymorphonuclear leukocyte migration ([1]; 10^-4 M, donor 195): -4%
percent inhibition (-) or enhancement of polymorphonuclear leukocyte migration ([1]; 10^-4 M, donor 499): -3%
percent inhibition (-) or enhancement of polymorphonuclear leukocyte migration ([1]; 10^-4 M, donor 591): -16%
percent inhibition (-) or enhancement of polymorphonuclear leukocyte migration ([1]; 10^-4 M, donor 593): -51%
percent inhibition (-) or enhancement of polymorphonuclear leukocyte migration ([1]; 10^-5 M, donor 195): 11%
percent inhibition (-) or enhancement of polymorphonuclear leukocyte migration ([1]; 10^-5 M, donor 499): -13%
percent inhibition (-) or enhancement of polymorphonuclear leukocyte migration ([1]; 10^-5 M, donor 591): 49%
percent inhibition (-) or enhancement of polymorphonuclear leukocyte migration ([1]; 10^-5 M, donor 593): 26%
percent inhibition (-) or enhancement of polymorphonuclear leukocyte migration ([1]; 10^-6 M, donor 195): -44%
percent inhibition (-) or enhancement of polymorphonuclear leukocyte migration ([1]; 10^-6 M, donor 499): -8%
percent inhibition (-) or enhancement of polymorphonuclear leukocyte migration ([1]; 10^-6 M, donor 591): 49%
percent inhibition (-) or enhancement of polymorphonuclear leukocyte migration ([1]; 10^-6 M, donor 593): 20%
Average % Change of PMN Adhesion to TNF Activated ECs ([2]; 10^-4 M): -13%
Average % Change of PMN Adhesion to TNF Activated ECs ([2]; 10^-6 M): +8%
Average % Change of PMN Adhesion to TNF Activated ECs ([2]; 10^-8 M): +12%

From US5340800A, “Peptide medicaments for the treatment of disease” (priority 1992, dated 1994)
